Laboratory results: patent US5698538A, “Boronic acid and ester inhibitors of thrombin” (The DuPont Merck Pharmaceutical Company, priority 1996, dated 1997)

How the values were obtained:
Assay type in all cases: biochemical
human factor VIIa = target: T1, human factor VIIa (Homo sapiens, UniProt P08709); assay: Inhibition of human factor VIIa (chromogenic substrate S2288), inhibitory constant Ki; details: 50 nM human factor VIIa, S2288, pH 7.6, 4 mM CaCl2, 30 minutes; read-out: Ki values for inhibition of Serine Proteases: Factor VIIa
T1 construct: Factor VIIa in the extrinsic pathway; purchased BiosPacific, Emeryville, Calif
T1 sequence (P08709 213-466 limits assumed): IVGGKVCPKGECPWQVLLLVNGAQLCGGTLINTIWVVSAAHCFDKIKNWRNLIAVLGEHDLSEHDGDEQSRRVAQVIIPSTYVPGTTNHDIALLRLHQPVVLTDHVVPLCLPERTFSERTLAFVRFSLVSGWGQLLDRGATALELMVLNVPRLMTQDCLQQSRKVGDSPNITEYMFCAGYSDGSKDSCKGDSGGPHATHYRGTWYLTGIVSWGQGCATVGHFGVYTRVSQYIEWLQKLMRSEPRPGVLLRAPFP
T1 sequence (P08709 61-212 partner limits assumed): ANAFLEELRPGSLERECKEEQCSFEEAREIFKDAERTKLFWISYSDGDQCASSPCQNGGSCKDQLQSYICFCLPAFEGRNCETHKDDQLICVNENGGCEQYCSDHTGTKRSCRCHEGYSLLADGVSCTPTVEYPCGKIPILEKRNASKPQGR
Method: (§1) The effectiveness of compounds of the present invention as inhibitors of blood coagulation proteases was determined using purified human proteases and synthetic substrates following procedures similar to those described in Kettner et al. (1990).
(§2) For these assays, the rate of enzymatic (thrombin, Factor Xa, and Factor VIIa) hydrolysis of chromogenic substrates (S2238 (H-D-Phe-Pip-Arg-pNA), S2222, and S2288, respectively; Kabi Pharmacia, Franklin, Ohio.) was measured both in the absence and presence of compounds of the present invention. […] A decrease in the rate of absorbance change at 405 nm in the presence of inhibitor is indicative of enzyme inhibition. The results of this assay are expressed as inhibitory constant, Ki.
(§3) Thrombin and Xa determinations were made in 0.10M sodium phosphate buffer, pH 7.5, containing 0.20M NaCl, and 0.5% PEG 8000. VIIa determinations were made in 0.05M tris buffer, pH 7.6, containing 0.10M NaCl, 4 mM CaCl2, and 0.1% bovine serum albumin. The Michaelis constant, Km, for substrate hydrolysis was determined at 5° C. using the method of Lineweaver and Burk.
(§4) Values of Ki were determined by allowing 0.2-0.5 nM human thrombin or human factor Xa (Enzyme Research Laboratories, South Bend, Ind.), or 50 nM human factor VIIa (BiosPacific, Emeryville, Calif.) react with the substrate (0.20 mM-1 mM) in the presence of inhibitor. Reactions were allowed to go for 30 minutes and the velocities (rate of absorbance change vs time) were measured in the time frame of 25-30 minutes. The following relationship was used to calculate Ki values. [formula] where: vo is the velocity of the control in the absence of inhibitor;
(§5) vs is the velocity in the presence of inhibitor;
(§6) I is the concentration of inhibitor;
(§7) Ki is the dissociation constant of the enzyme: inhibitor complex;
(§8) S is the concentration of substrate;
(§9) Km is the Michaelis constant.

human thrombin = target: T2, human thrombin (Homo sapiens, UniProt P00734); assay: Inhibition of human thrombin (chromogenic substrate S2238), inhibitory constant Ki; details: 0.2-0.5 nM human thrombin, S2238, pH 7.5, 30 minutes; read-out: Ki values for inhibition of Serine Proteases: Thrombin
T2 construct: purchased Enzyme Research Laboratories, South Bend, Ind
Method: as §1, §2, §3, §4, §5, §6, §7, §8, §9

human factor Xa = target: T3, human factor Xa (Homo sapiens, UniProt P00742); assay: Inhibition of human factor Xa (chromogenic substrate S2222), inhibitory constant Ki; details: S2222, pH 7.5, 30 minutes, read-out: Ki values for inhibition of Serine Proteases: Factor Xa
T3 construct: purchased Enzyme Research Laboratories, South Bend, Ind
Method: as §1, §2, §3, §4, §5, §6, §7, §8, §9

T3 sequence (P00742 235-488 limits assumed): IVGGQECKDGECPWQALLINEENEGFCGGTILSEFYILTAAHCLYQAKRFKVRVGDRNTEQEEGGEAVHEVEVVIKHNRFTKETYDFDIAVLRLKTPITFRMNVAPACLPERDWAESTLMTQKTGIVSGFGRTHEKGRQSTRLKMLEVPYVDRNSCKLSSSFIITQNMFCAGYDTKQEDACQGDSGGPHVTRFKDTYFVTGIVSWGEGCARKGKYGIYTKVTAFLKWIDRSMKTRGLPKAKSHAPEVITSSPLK
T3 sequence (P00742 41-179 partner limits assumed): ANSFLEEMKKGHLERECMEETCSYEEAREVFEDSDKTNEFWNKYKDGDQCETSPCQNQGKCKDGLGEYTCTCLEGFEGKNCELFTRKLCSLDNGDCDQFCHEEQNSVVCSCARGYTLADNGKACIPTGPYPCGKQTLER

| Structure (SMILES) | Ki (human factor VIIa) [nM] | Ki (human thrombin) [nM] | Ki (human factor Xa) [nM] |
| --- | --- | --- | --- |
| CC1(C)C2CC3OB([C@H](CCCCN)NC(=O)Cn4nc(Cc5ccccc5)nc4Cc4ccccc4)OC3(C)C1C2 (stereo partly drawn) [Example 2447] | 500 to 50000 | < 500 | 500 to 50000 |
| Cc1cc(-c2ccccc2S(N)(=O)=O)ccc1C(=O)N[C@@H](CCCNC(=N)N)B1O[C@@H]2C[C@@H]3C[C@@H](C3(C)C)[C@]2(C)O1 [Example 227] | 500 to 50000 | < 500 | < 500 |
| CC1(C)C2CC3OB([C@H](CCCCN)NC(=O)Cn4nc(Cc5ccccc5)nc4CO)OC3(C)C1C2 (single isomer, unassigned) [Example 2439] | 500 to 50000 | < 500 | 500 to 50000 |
| CC1(C)C2CC3OB([C@H](CCCCN)NC(=O)Cn4nc(CO)nc4CCc4ccccc4)OC3(C)C1C2 (single isomer, unassigned) [Example 1459] | 500 to 50000 | < 50000 | 500 to 50000 |
| CC1(C)C2CC3OB([C@H](CCCNC(=N)N)NC(=O)Cn4nc(-c5cccc([N+](=O)[O-])c5)nc4Cc4ccccc4)OC3(C)C1C2 (single isomer, unassigned) [Example 969] | 500 to 50000 | < 500 | 500 to 50000 |
| CC(C)(C)NS(=O)(=O)c1ccccc1-c1ccc(C(=O)N[C@@H](CCCNC(=N)N)B2O[C@@H]3C[C@@H]4C[C@@H](C4(C)C)[C@]3(C)O2)c(Cl)c1 [Example 262] | < 500 | < 500 | < 500 |
| CC1(C)C2CC3OB([C@H](CCCCN)NC(=O)Cn4nc(CCc5ccccc5)nc4COCc4ccccc4)OC3(C)C1C2 (single isomer, unassigned) [Example 2781] | 500 to 50000 | < 500 | 500 to 50000 |
